Laboratory results reported in ChEMBL document CHEMBL1201862, “PubChem BioAssay data set” (2004).
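Results reflect a 48-hour exposure of cells in 96-well plates to compound at five concentrations. Abbreviation: GI50, concentration required for 50% inhibition of growth.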 Active and inactive are the calls of the source. Cut-off read from the data, not from the text of the source: active = GI50 up to about 1.1 µM and inactive = higher.

How the values were obtained:
Experiment in all cases: NCI-60 cell line screen, 48 h
[1] = system: RXF 631
[2] = system: M19-MEL
[3] = system: SNB-78
[4] = system: XF498
[5] = system: DMS-114
[6] = system: LXFL 529
[7] = system: DLD-1
[8] = system: HOP-18
[9] = system: DMS-273

Measured: GI50

Cc1cc(N(CCC#N)CCC#N)ccc1/C=C1\N=C(c2cc([N+](=O)[O-])ccc2Cl)N(NC(=O)c2ccc(/N=C\c3ccc(N(CCC#N)S(C)(=O)=O)cc3C)cc2)C1=O
inactive: [1] > 100 µM | [2] 73.1 µM | [3] > 100 µM | [4] > 100 µM | [5] 85.5 µM | [6] 64.3 µM | [7] 63.5 µM | [8] > 100 µM | [9] 41.5 µM

NCCCC(N/C=C1/N=C(c2ccccc2)OC1=O)C(=O)O (stereo not given)
inactive: [2] > 100 µM | [3] > 100 µM | [4] > 100 µM | [5] > 100 µM | [6] 96.8 µM | [7] 65.8 µM | [9] > 100 µM

COC(=O)c1cc2c3c(ccc2[nH]1)N(C(=O)c1cc2c4c(ccc2[nH]1)N(C(=O)c1cc2c5c(ccc2[nH]1)N(C(N)=O)CC5)CC4)CC3
inactive: [3] > 100 µM | [5] 3.7 µM | [6] 2.07 µM | [7] > 21.1 µM | [8] > 100 µM | [9] 4.06 µM

O=C(/C=C/c1ccc(OCCSCCCCCCCCCCSCCOc2ccc(/C=C/C(=O)c3ccc(Cl)cc3)cc2)cc1)c1ccc(Cl)cc1
inactive: [1] > 66.1 µM | [2] > 100 µM | [3] 37.2 µM | [5] > 100 µM | [6] > 100 µM | [7] > 100 µM | [8] > 100 µM | [9] > 100 µM

COc1cc(C2(C)SCCCS2)cc(OC)c1OC
inactive: [1] > 100 µM | [2] > 100 µM | [5] > 100 µM | [6] > 100 µM | [7] > 100 µM | [8] > 100 µM | [9] > 100 µM

Cc1ccc(/C=C(\NC(=O)c2ccccc2)c2nc3ccccc3[nH]2)cc1
inactive: [2] 46.5 µM | [5] 27.6 µM | [6] 32.2 µM | [7] 56.8 µM | [8] > 100 µM

CCOC(=O)C(=O)Nc1ccc([N+](=O)[O-])cc1C#N
inactive: [1] > 100 µM | [2] > 100 µM | [4] > 100 µM | [5] > 100 µM | [6] > 100 µM | [7] > 100 µM | [8] > 100 µM

COC(=O)C1CC(C(=O)OC)c2nc3cc(C)ccc3nc21 (stereo not given)
inactive: [1] > 100 µM | [2] > 100 µM | [3] > 100 µM | [4] > 100 µM | [5] > 100 µM | [6] > 100 µM | [7] > 100 µM | [8] 51.4 µM | [9] > 100 µM

ClC(/N=N/c1ccccc1)=N/Nc1ccccc1
inactive: [1] > 100 µM | [2] > 100 µM | [3] > 100 µM | [4] 40.4 µM | [6] 28.5 µM | [8] 20.8 µM | [9] 26.6 µM

COC(=O)C(C(=O)C(=O)Nc1ccc(C)cc1C)c1nc2ccc([N+](=O)[O-])cc2nc1O (stereo not given)
inactive: [1] > 100 µM | [2] > 100 µM | [3] > 100 µM | [4] > 100 µM | [5] 33.4 µM | [6] 56.8 µM | [7] > 100 µM | [8] > 100 µM | [9] 97.7 µM

O=C1C(Br)=C(Br)C(=O)c2ccc(=O)ccc21
inactive: [1] 18.7 µM | [2] 17.2 µM | [3] 29.3 µM | [4] 24 µM | [5] 20.4 µM | [6] 17.7 µM | [7] 22.3 µM | [8] 24.2 µM | [9] 48 µM

CCOP(=O)(OCC)/C(C#N)=C\c1cccc2ccccc12
inactive: [2] > 100 µM | [3] 48.2 µM
